Measured values: patent US20030161893A1, “PTPase inhibitors and methods of using the same” (priority 2001, published 2003)

What was measured:
WiT49-N1 cells = assay: Cell proliferation assay (MTT), WiT49-N1 Wilms tumor cells; assay type: cell-based, human; settings: day 6
Description: (§1) For cell proliferation assays, cells were grown in 10% FCS culture medium containing various amounts of IFNs and/or sodium stibogluconate in 96 well plates and cultured at 37° C. for 3 or 6 days as indicated. The numbers of viable cells in proliferation assays were determined by MTT assays as described in Phatak et al., J. Immunol. 167, 3391 (2001).

WM35 cells = assay: Cell proliferation assay (MTT), WM35 melanoma cells; assay type: cell-based, human
Description: as §1

C42 cells = assay: Cell proliferation assay (MTT), C42 prostate cancer cells; assay type: cell-based, human
Description: as §1

Flag-PRL-1 = target: T1, Flag-PRL-1 (Homo sapiens, UniProt Q93096); assay: Immunocomplex PTPase assay, Flag-PRL-1 NIH3T3 transfectants; assay type: cell-based; settings: cells treated 5 min
T1 construct: expressed in transfected cells
Description: Immunocomplex PTPase assays were performed to assess the effects of sodium stibogluconate on intracellular PTPases. Cells were untreated or treated with sodium stibogluconate for 5 minutes, washed with fresh medium and then lysed in cold lysis buffer (50 mM Tris, pH 7.4; 150 mM NaCl; 1% NP40; 2 mM PMSF; 20 ,g/ml of Aprotinin). The lysates were incubated with an anti-Flag antibody in immunoprecipitation assays. The immunocomplexes were collected with protein G sepharose beads (Pharmacia) and washed in cold lysis buffer for 4 times. […] 100 μL of malachite green solution (UBI) was added to each reaction prior to measurement of OD660 to quantify the amounts of free phosphate cleaved by the PTPases from the peptide substrate (Pathak et al., J. Imumol. 167, 3391 (2001)). The remaining 10% contents of individual samples were analyzed by SDS-PAGE/Western blotting to quantify the relative amounts of the phosphatase proteins. […]
The effects of sodium stibogluconate on intracellular PTPases were assessed using NIH3T3 or WM9 transfectants. […]

MKP1 = target: T2, MKP1 (Homo sapiens, UniProt P28562); assay: In vitro PTPase assay, GST/MKP1 fusion protein; assay type: biochemical
T2 construct: a pGEX construct containing the coding region of MKP1 cDNA derived by RT-PCR; made in house; host or cells: DH5a bacteria (E. coli)
T2 sequence (P28562 1-367): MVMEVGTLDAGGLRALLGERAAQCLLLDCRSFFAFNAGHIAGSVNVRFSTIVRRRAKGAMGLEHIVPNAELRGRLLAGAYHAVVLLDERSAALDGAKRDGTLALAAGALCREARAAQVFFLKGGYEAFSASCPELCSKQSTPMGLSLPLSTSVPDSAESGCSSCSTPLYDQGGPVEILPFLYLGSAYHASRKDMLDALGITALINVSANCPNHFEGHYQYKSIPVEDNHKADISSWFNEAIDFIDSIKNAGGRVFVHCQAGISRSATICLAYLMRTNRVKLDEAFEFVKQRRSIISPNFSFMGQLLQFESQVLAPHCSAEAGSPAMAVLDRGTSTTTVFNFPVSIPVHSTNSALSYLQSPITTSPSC

Jak2/Stat5 = assay: IL-3-induced Jak2/Stat5 tyrosine phosphorylation in Baf3 cells; assay type: cell-based, murine
Description: For induction of cellular protein phosphorylation by sodium stibogluconate or pervanadate, Baf3 cells were incubated in 0.1% FCS-RPMI 1640 medium at 37° C. for 16 hours. The cells were then washed twice in RPMI 1640 medium and incubated with sodium stibogluconate or pervanandate (0.1 mM) for various times prior to termination by lysing cells in cold lysis buffer (50 mM Tris, pH 7.4; 150 mM NaCl; 0.2 mM Na3VO4; 20 mm NaF; 1% Nonidet P-40; 2 mM PMSF; 20 μg/ml of Aprotinin and 1 mM of sodium molybdic acid). To determine the effect of sodium stibogluconate or potassium antimonyl tartrate on IL-3-induced Jak/Stat phosphorylation, Baf3 cells were deprived of the growth factor for 16 hours in 0.1% FCS RPMI 1640 medium and then incubated with or without sodium stibogluconate or potassium antimonyl tartrate for 10 minutes. IL-3 was next added to the cell suspension and incubated for various times. The Cells were then harvested and lysed in cold lysis buffer at 4° C. for 45 minutes. Total cell lysates (TCL) were separated in SDS-PAGE gels, blotted onto nitrocellulose membrane (Schleicher & Schuell), probed with specific antibodies and detected using an enhanced chemiluminescence kit (ECL, Amersham, Arlington Heights, Ill.).

MDA231 cells = assay: Cell proliferation assay (MTT), MDA231 breast cancer cells; assay type: cell-based, human
Description: as §1

T1 sequence (Q93096 whole entry): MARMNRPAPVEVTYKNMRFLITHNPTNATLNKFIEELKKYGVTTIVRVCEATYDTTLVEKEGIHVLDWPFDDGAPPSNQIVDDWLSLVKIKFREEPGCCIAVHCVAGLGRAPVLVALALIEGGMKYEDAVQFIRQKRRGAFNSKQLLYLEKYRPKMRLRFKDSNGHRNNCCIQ

Compound: O.O.O.O.O.O.O.O.O.O=C([O-])[C@@H]1[O][Sb]2([O-])([O][Sb]34([OH])[O][C@H]([C@H](O)CO)[C@H]([O]3)[C@H](C(=O)[O-])[O]4)[O][C@H]([C@H](O)CO)[C@@H]1[O]2.[Na+].[Na+].[Na+] [sodium stibogluconate]
- growth inhibition of WiT49-N1 with added IFN-alpha (WiT49-N1 cells): not enhanced by IFN-alpha
- sensitivity of WiT49-N1 cells (WiT49-N1 cells): sensitive
- sensitivity of WM35 cells (WM35 cells): minimally affected
- sensitivity of C42 cells (C42 cells): highly resistant
- PTPase activity of anti-Flag immunocomplexes, Flag-PRL-1 (Flag-PRL-1): little PTPase activities
- inhibition of MKP1 (MKP1): no obvious effects
- inhibitory activity against MKP1 (MKP1): no obvious inhibitory activity
- phosphotyrosine levels of Jak2 and Stat5 versus cells without drug (Jak2/Stat5; IL-3 stimulated, densitometry): about twice
- Jak2/Stat5 tyrosine phosphorylation by drug alone (Jak2/Stat5; no IL-3, 37° C. for 16 hours): failed to induce Jak2/Stat5 tyrosine phosphorylation
- killing of MDA231 cells, single agent (MDA231 cells; 50 μg/ml and 100 μg/ml, day 6 culture): killed all cells
- IFN-alpha-induced growth inhibition of MDA231 in presence of drug (MDA231 cells; day 6): augmented
